EC50 and CC50 data for 13 compounds are collected here from patent US12208110B2 (priority 2020, dated 2025).

Where two headings read alike, the source gives them in different places.

Holding throughout (format): cell-based
Data set [1] relates to RSV-Fluc (Recombinant Respiratory Syncytial virus strain A2 containing the firefly luciferase reporter). Briefly: microbe, parasite or virus in culture. Particulars: human respiratory syncytial virus, NHBE, 72 h, read-out: RSV-Fluc EC50 (nM, NHBE).
Another data set concerns SARS-CoV-2. Briefly: microbe, parasite or virus in culture. Particulars: Severe acute respiratory syndrome coronavirus 2, 48 h.
Data set [2] is described as follows: MT4 cytotoxicity analysis (CellTiter-Glo). Particulars: human. As to the method: Example 79: MT4 Cytotoxicity Analysis
3-fold serially diluted compound in DMSO, ranging from 2.5 uM to 10 mM, were added by acoustic transfer (Echo) in quadruplicate into black 384-well plates at 200 nl/well. After compound addition, 40 ul MT-4 cells at 80,000/ml were added to each well using a MicroFlo liquid dispenser (BioTek, Winooski, VT) and the cells were cultured for five days at 37° C. Following the incubation, cell viability was determined by adding 35 μL of CellTiter-Glo viability reagent and mixed thoroughly using ViaFlo 384 well workstation. The mixture was incubated for at least 10 minutes at 25° C., and the luminescence signal was quantified on an EnVision plate reader.

The mark [3] stands for this setting: MT-4 cells, five days, CellTiter-Glo, read-out: MT4 CC50.

In general, EC50 refers to the concentration needed to bring the measured effect to its halfway point. The term CC50 denotes the concentration that lowers cell viability or growth by half. With `CCCCCCCCCCCCCCCCCCOC[C@H](COc1ccccc1)OP(=O)(O)OC[C@H]1O[C@@](C#N)(c2ccc3c(N)ncnn23)[C@H](O)[C@@H]1O` [Example 18, ((2R,3S,4R,5R)-5-(4-aminopyrrolo[2,1-f][1,2,4]triazin-7-yl)-5-cyano-3,4-dihydroxytetrahydrofuran-2-yl)methyl ((R)-1-(octadecyloxy)-3-phenoxypropan-2-yl) hydrogen phosphate], the figures for the EC50 (in data set [1]; in the data set with SARS-CoV-2) were 69 nM and 1800 nM, respectively. Moreover, in data set [2] (setting [3]), the 50% cytotoxic concentration (CC50) at 5 days is 670 nM.

For the compound `CCCCCCCCCCCCCCCCCCOCCOP(=O)(O)OC[C@H]1O[C@@](C#N)(c2ccc3c(N)ncnn23)[C@H](O)[C@@H]1O` [Example 21, ((2R,3S,4R,5R)-5-(4-Aminopyrrolo[2,1-f][1,2,4]triazin-7-yl)-5-cyano-3,4-dihydroxytetrahydrofuran-2-yl)methyl (2-(octadecyloxy)ethyl) hydrogen phosphate], the concentration giving a half-maximal response (EC50) in data set [1] is 250 nM; with SARS-CoV-2 it was 9100 nM. In data set [2] (setting [3]), the CC50 at 5 days is 2300 nM.

`CCCCCCCCCCCCCCCCCCO[C@H](COCc1ccccc1)COP(=O)(O)OC[C@H]1O[C@@](C#N)(c2ccc3c(N)ncnn23)[C@H](O)[C@@H]1O` [Example 22, ((2R,3S,4R,5R)-5-(4-aminopyrrolo[2,1-f][1,2,4]triazin-7-yl)-5-cyano-3,4-dihydroxytetrahydrofuran-2-yl)methyl ((R)-3-(benzyloxy)-2-(octadecyloxy)propyl) hydrogen phosphate]: the half-maximal effective concentration (EC50) in data set [1] turned out to be 150 nM; in the data set on SARS-CoV-2, 3900 nM. In data set [2] (setting [3]), the 50% cytotoxic concentration (CC50) at 5 days was found to be 9600 nM.

Take `CCCCCCCCCCCCCCCCO[C@H](COCc1ccccc1)COP(=O)(O)OC[C@H]1O[C@@](C#N)(c2ccc3c(N)ncnn23)[C@H](O)[C@@H]1O` [Example 23, ((2R,3S,4R,5R)-5-(4-aminopyrrolo[2,1-f][1,2,4]triazin-7-yl)-5-cyano-3,4-dihydroxytetrahydrofuran-2-yl)methyl ((R)-3-(benzyloxy)-2-(hexadecyloxy)propyl) hydrogen phosphate]: the concentration for a half-maximal effect (EC50) in data set [1] came to 83 nM; in the data set with SARS-CoV-2 it was 10000 nM. Besides, the CC50 at 5 days in data set [2] (setting [3]) is 23000 nM.

For `CCCCCCCCCCCCCCO[C@H](COCc1ccccc1)COP(=O)(O)OC[C@H]1O[C@@](C#N)(c2ccc3c(N)ncnn23)[C@H](O)[C@@H]1O` [Example 24, ((2R,3S,4R,5R)-5-(4-Aminopyrrolo[2,1-f][1,2,4]triazin-7-yl)-5-cyano-3,4-dihydroxytetrahydrofuran-2-yl)methyl ((R)-3-(benzyloxy)-2-(tetradecyloxy)propyl) hydrogen phosphate], the results for the EC50 (in data set [1]; in the data set with SARS-CoV-2) were 73 nM and 9900 nM, respectively. For the same compound, the half-maximal cytotoxic concentration (CC50) at 5 days in data set [2] (setting [3]) is 35000 nM.

Turning to `CCCCCCCCCCCCCCCCCCOC[C@H](CO[P@@](=O)(S)OC[C@H]1O[C@@](C#N)(c2ccc3c(N)ncnn23)[C@H](O)[C@@H]1O)OCc1ccccc1` [Example 28, O-(((2R,3S,4R,5R)-5-(4-aminopyrrolo[2,1-f][1,2,4]triazin-7-yl)-5-cyano-3,4-dihydroxytetrahydrofuran-2-yl)methyl) O—((R)-2-(benzyloxy)-3-(octadecyloxy)propyl)S-hydrogen (R)-phosphorothioate], the results for the half-maximal effective concentration (EC50) (in data set [1]; with SARS-CoV-2) were 190 nM and 3800 nM, respectively. The compound further displayed a CC50 at 5 days in data set [2] (MT4 CC50 (nM)) of 24000 nM.

For `CCCCCCCCCCCCCCCCCCOC[C@H](COP(=O)(O)OC[C@H]1O[C@@](C#N)(c2ccc3c(N)ncnn23)[C@H](O)[C@@H]1O)Oc1c(C#N)cc(C)cc1C#N` [Example 29, ((2R,3S,4R,5R)-5-(4-aminopyrrolo[2,1-f][1,2,4]triazin-7-yl)-5-cyano-3,4-dihydroxytetrahydrofuran-2-yl)methyl ((R)-2-(2,6-dicyano-4-methylphenoxy)-3-(octadecyloxy)propyl) hydrogen phosphate], the 50% effective concentration (EC50) in data set [1] amounted to 70 nM; in the data set with SARS-CoV-2, 2700 nM. In data set [2] (MT4 CC50 (nM)), the CC50 at 5 days was determined as 500 nM.

In the case of `CCCCCCCCCCCCCCCCCCOC[C@H](COP(=O)(O)OC[C@H]1O[C@@](C#N)(c2ccc3c(N)ncnn23)[C@H](O)[C@@H]1O)Nc1ccccc1C(=O)O` [Example 31, 2-(((2R)-1-(((((2R,3S,4R,5R)-5-(4-aminopyrrolo[2,1-f][1,2,4]triazin-7-yl)-5-cyano-3,4-dihydroxytetrahydrofuran-2-yl)methoxy)(hydroxy)phosphoryl)oxy)-3-(octadecyloxy)propan-2-yl)amino)benzoic acid], the EC50 in data set [1] was 260 nM; with SARS-CoV-2 it was 6300 nM. The 50% cytotoxic concentration (CC50) at 5 days in data set [2] (MT4 CC50 (nM)) worked out at 38000 nM.

Take `CCCCCCCCCCCCCCCCCCOC[C@H](COP(=O)(O)OC[C@H]1O[C@@](C#N)(c2ccc3c(N)ncnn23)[C@H](O)[C@@H]1O)OCc1cc(F)cc(S(C)(=O)=O)c1` [Example 32, ((2R,3S,4R,5R)-5-(4-aminopyrrolo[2,1-f][1,2,4]triazin-7-yl)-5-cyano-3,4-dihydroxytetrahydrofuran-2-yl)methyl ((R)-2-((3-fluoro-5-(methylsulfonyl)benzyl)oxy)-3-(octadecyloxy)propyl) hydrogen phosphate]: the figures for the EC50 (in data set [1]; with SARS-CoV-2) were 40 nM and 120 nM, respectively. Further, half-maximal cytotoxicity in data set [2] (MT4 CC50 (nM)) (CC50 at 5 days) was put at 340 nM.

As to `CCCCCCCCCCCCCCCCCCOC[C@H](COCc1cc(F)cc(C#N)c1)OP(=O)(O)OC[C@H]1O[C@@](C#N)(c2ccc3c(N)ncnn23)[C@H](O)[C@@H]1O` [Example 36, ((2R,3S,4R,5R)-5-(4-aminopyrrolo[2,1-f][1,2,4]triazin-7-yl)-5-cyano-3,4-dihydroxytetrahydrofuran-2-yl)methyl ((R)-1-((3-cyano-5-fluorobenzyl)oxy)-3-(octadecyloxy)propan-2-yl) hydrogen phosphate], the EC50 came out at 190 nM in data set [1] and 1200 nM in the data set on SARS-CoV-2. Also, the midpoint of cytotoxicity in data set [2] (MT4 CC50 (nM)), the CC50 at 5 days, lay at 28000 nM.

On to `CCCCCCCCCCCCCCCCCCOC[C@H](COc1cc(F)cc(C#N)c1)OP(=O)(O)OC[C@H]1O[C@@](C#N)(c2ccc3c(N)ncnn23)[C@H](O)[C@@H]1O` [Example 39, ((2R,3S,4R,5R)-5-(4-aminopyrrolo[2,1-f][1,2,4]triazin-7-yl)-5-cyano-3,4-dihydroxytetrahydrofuran-2-yl)methyl ((R)-1-(3-cyano-5-fluorophenoxy)-3-(octadecyloxy)propan-2-yl) hydrogen phosphate], for which the 50% effective concentration (EC50) came out at 78 nM in data set [1] and 190 nM in the data set with SARS-CoV-2. The CC50 at 5 days in data set [2] (MT4 CC50 (nM)) came out at 2800 nM.

Regarding `CCCCCCCCCCCCCCCCCCOC[C@H](COc1ccc(C#N)cn1)OP(=O)(O)OC[C@H]1O[C@@](C#N)(c2ccc3c(N)ncnn23)[C@H](O)[C@@H]1O` [Example 41, ((2R,3S,4R,5R)-5-(4-aminopyrrolo[2,1-f][1,2,4]triazin-7-yl)-5-cyano-3,4-dihydroxytetrahydrofuran-2-yl)methyl ((R)-1-((5-cyanopyridin-2-yl)oxy)-3-(octadecyloxy)propan-2-yl) hydrogen phosphate], the concentration giving a half-maximal response (EC50) in data set [1] stood at 63 nM; in the data set with SARS-CoV-2, 130 nM. This compound came in with a cytotoxic concentration (CC50) at 5 days in data set [2] (MT4 CC50 (nM)) of 1900 nM.

As to `CCCCCCCCCCCCCCCCCCOC[C@H](COP(=O)(O)OC[C@H]1O[C@@](C#N)(c2ccc3c(N)ncnn23)[C@H](O)[C@@H]1O)Nc1ccc(C#N)cn1` [Example 42, ((2R,3S,4R,5R)-5-(4-aminopyrrolo[2,1-f][1,2,4]triazin-7-yl)-5-cyano-3,4-dihydroxytetrahydrofuran-2-yl)methyl ((R)-2-((5-cyanopyridin-2-yl)amino)-3-(octadecyloxy)propyl) hydrogen phosphate], the EC50 stood at 180 nM in data set [1] and 4600 nM in the data set on SARS-CoV-2. The CC50 at 5 days in data set [2] (MT4 CC50 (nM)) worked out at 550 nM.
